Reference: ChEMBL document CHEMBL1130772, “New nonsteroidal androgen receptor modulators based on 4-(trifluoromethyl)-2(1H)-pyrrolidino[3,2-g] quinolinone” (Bioorg Med Chem Lett, 1998)

Experiments:
[1] = molecular target: T1, Androgen receptor (Homo sapiens, UniProt P10275); assay: Antagonistic activity (IC50) against human androgen receptor (hAR) in co-transfected CV-1 cell; assay type: functional, cell-based
T1 sequence (P10275 whole entry): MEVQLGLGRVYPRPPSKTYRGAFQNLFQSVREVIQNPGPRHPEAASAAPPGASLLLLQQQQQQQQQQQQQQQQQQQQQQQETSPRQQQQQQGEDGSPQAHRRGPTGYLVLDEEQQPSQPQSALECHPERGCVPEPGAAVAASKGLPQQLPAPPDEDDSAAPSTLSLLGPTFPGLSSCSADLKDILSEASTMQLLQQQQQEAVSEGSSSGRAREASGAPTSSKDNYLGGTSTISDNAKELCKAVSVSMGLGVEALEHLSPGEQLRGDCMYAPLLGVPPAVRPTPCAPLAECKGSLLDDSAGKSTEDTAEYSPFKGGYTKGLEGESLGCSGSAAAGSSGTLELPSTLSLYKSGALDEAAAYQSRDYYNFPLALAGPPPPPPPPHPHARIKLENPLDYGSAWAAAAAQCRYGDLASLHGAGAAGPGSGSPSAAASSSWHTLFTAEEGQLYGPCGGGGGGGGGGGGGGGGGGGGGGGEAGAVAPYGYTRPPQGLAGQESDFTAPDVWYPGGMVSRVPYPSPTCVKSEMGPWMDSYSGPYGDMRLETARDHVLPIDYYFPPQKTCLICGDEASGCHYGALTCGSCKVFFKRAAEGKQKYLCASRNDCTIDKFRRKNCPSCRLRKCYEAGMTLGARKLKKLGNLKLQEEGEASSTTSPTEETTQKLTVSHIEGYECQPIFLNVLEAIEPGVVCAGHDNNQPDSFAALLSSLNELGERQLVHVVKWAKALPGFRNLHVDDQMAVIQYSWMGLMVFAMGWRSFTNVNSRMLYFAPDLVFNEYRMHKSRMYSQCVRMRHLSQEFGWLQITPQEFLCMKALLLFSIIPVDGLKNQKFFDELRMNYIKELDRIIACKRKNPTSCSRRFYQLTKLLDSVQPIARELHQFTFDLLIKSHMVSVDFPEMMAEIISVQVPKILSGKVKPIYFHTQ

[2] = molecular target: T2, Glucocorticoid receptor (Homo sapiens) (UniProt P04150); assay: (§1) Antagonistic activity against Glucocorticoid receptor in co-transfected CV-1 cell; assay type: functional, cell-based
T2 sequence (whole entry): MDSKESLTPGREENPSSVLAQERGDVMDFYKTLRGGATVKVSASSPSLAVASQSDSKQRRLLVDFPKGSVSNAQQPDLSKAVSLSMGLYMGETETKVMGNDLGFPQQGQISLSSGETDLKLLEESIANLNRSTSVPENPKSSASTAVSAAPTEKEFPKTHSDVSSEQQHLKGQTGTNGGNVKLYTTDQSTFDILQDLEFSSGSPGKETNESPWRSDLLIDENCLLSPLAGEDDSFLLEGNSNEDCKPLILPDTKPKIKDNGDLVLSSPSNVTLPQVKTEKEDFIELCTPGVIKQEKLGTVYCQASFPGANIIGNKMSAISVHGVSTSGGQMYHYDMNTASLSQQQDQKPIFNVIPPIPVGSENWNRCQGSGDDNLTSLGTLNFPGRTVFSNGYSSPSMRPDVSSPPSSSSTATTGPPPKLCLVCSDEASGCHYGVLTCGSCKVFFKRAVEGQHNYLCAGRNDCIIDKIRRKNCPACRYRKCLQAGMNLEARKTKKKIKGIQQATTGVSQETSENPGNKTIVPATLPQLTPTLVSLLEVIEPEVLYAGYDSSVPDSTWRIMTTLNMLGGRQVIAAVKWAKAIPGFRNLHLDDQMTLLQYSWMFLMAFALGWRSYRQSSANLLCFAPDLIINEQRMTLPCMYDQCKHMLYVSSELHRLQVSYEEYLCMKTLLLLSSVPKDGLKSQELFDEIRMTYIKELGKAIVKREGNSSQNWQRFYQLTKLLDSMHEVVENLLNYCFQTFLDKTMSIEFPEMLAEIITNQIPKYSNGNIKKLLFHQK

[3] = molecular target: T3, Estrogen receptor (Homo sapiens, UniProt Q92731+P03372); assay: (§2) Antagonistic activity against Estrogen receptor in co-transfected CV-1 cell; assay type: functional, cell-based
[4] = molecular target: T3, Estrogen receptor; assay: as §2; assay type: functional, cell-based; remark: listed apart in the source
[5] = molecular target: T4, Mineralocorticoid receptor (Homo sapiens) (UniProt P08235); assay: (§3) Antagonistic activity against hMR in co-transfected CV-1 cell; assay type: functional, cell-based
T4 sequence (whole entry): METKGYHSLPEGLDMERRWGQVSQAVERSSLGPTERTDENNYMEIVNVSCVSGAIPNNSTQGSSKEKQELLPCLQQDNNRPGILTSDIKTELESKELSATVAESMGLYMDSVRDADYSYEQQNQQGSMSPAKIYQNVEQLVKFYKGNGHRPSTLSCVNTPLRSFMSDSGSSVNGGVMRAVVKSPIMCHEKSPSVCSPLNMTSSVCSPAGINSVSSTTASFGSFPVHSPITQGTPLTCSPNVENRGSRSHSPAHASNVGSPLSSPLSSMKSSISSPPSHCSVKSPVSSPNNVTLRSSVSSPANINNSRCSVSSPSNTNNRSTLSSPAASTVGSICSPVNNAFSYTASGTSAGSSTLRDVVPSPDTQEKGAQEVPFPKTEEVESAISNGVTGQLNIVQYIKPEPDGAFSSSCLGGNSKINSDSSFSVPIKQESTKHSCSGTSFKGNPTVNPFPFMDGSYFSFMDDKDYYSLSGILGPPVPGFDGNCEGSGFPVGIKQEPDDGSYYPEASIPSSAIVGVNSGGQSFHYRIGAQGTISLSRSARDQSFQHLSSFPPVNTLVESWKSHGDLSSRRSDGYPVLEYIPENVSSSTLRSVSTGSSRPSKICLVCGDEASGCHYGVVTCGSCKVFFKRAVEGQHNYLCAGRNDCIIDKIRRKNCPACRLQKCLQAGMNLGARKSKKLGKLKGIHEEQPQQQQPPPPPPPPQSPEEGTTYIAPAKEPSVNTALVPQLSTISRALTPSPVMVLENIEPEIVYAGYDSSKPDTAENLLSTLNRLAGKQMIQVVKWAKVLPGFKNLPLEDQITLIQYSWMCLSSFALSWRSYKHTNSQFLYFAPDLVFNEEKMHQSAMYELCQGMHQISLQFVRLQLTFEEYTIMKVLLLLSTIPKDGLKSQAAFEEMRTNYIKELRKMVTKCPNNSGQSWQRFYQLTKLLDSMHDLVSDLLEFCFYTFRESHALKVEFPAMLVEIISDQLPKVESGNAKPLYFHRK

[6] = molecular target: T5, Progesterone receptor (Homo sapiens) (UniProt P06401); assay: (§4) Antagonistic activity against hPR in co-transfected CV-1 cell; assay type: functional, cell-based
T5 sequence (whole entry): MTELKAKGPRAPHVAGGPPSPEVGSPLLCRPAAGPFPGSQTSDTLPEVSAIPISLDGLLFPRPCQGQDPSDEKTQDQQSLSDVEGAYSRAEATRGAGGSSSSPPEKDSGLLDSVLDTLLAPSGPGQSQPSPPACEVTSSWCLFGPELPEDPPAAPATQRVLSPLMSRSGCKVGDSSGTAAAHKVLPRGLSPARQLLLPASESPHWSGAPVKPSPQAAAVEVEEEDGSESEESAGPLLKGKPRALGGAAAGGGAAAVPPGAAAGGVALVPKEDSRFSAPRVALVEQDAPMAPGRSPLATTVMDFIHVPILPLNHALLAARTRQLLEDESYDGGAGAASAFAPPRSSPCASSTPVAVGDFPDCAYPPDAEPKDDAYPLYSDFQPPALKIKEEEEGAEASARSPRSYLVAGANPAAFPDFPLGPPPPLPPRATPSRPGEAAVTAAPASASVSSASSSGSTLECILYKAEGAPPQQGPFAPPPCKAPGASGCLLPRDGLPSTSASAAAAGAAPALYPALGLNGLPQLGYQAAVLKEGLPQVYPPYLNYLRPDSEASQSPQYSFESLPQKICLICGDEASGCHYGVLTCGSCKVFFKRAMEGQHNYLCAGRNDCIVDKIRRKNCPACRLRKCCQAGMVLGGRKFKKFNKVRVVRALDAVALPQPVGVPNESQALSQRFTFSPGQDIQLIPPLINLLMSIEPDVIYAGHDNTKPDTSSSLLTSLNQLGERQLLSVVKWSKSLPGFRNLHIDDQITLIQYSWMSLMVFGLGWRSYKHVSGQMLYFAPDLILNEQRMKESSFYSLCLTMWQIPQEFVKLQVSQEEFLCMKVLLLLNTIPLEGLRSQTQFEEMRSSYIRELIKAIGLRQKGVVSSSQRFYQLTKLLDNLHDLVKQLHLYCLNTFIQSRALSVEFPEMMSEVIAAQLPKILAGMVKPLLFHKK

[7] = molecular target: T1, Androgen receptor; assay: Binding affinity against Androgen receptor transfected into COS cells
[8] = molecular target: T1, Androgen receptor; assay: Agonistic activity (EC50) against human androgen receptor (hAR) in co-transfected CV-1 cell; assay type: functional, cell-based
[9] = molecular target: T1, Androgen receptor
[10] = molecular target: T6, Glucocorticoid receptor (Homo sapiens, UniProt P04150); assay: as §1; assay type: functional, cell-based
T6 sequence (P04150 whole entry): T2 sequence (whole entry)

[11] = molecular target: T7, Mineralocorticoid receptor (Homo sapiens, UniProt P08235); assay: as §3; assay type: functional, cell-based
T7 sequence (P08235 whole entry): T4 sequence (whole entry)

[12] = molecular target: T8, Progesterone receptor (Homo sapiens, UniProt P06401); assay: as §4; assay type: functional, cell-based
T8 sequence (P06401 whole entry): T5 sequence (whole entry)

[13] = molecular target: T1, Androgen receptor; conditions: cv-1
Description: Agonistic activity against human androgen receptor (hAR) in co-transfected CV-1 cell

C[C@]12CCCC[C@H]1Nc1cc3nc(O)cc(C(F)(F)F)c3cc12
IC50 [1]: Not Active | Efficacy [2]: 43% | Efficacy [3]: < 20% | IC50 [4]: > 10000 nM | Efficacy [5]: 43% | Efficacy [6]: 96%

C[C@@H]1c2cc3c(C(F)(F)F)cc(=O)n(C)c3cc2N[C@@H]1C
Ki [7]: 10 nM | EC50 [8]: 15 nM | IC50 [9]: 9180 nM

C[C@]12CCCC[C@H]1Nc1cc3[nH]c(=O)cc(C(F)(F)F)c3cc12
Ki [7]: 21 nM | EC50 [8]: 25 nM | IC50 [10]: 2100 nM | IC50 [11]: 1900 nM | IC50 [12]: 730 nM

C[C@@H]1CNc2cc3nc(O)cc(C(F)(F)F)c3cc21
IC50 [1]: Not Active | Ki [7]: 17 nM | EC50 [8]: 62 nM

CCn1c(=O)cc(C(F)(F)F)c2cc3c(cc21)N[C@@H]1CCCC[C@H]31
Ki [7]: 194 nM | IC50 [9]: 230 nM | EC50 [13]: Not Active

C[C@H]1CC[C@@H]2[C@H](C1)c1cc3c(C(F)(F)F)cc(=O)n(C)c3cc1N2C
Ki [7]: 78 nM | IC50 [9]: 54 nM | EC50 [13]: Not Active

C[C@H]1Nc2cc3[nH]c(=O)cc(C(F)(F)F)c3cc2C1(C)C
Ki [7]: 21 nM | EC50 [8]: 99 nM | IC50 [9]: 48 nM

Cn1c(=O)cc(C(F)(F)F)c2cc3c(cc21)N[C@@H]1CCCC[C@H]31
IC50 [1]: Not Active | Ki [7]: 4 nM | EC50 [8]: 10 nM | IC50 [10]: 3000 nM | Efficacy [2]: 39% | Efficacy [3]: < 20% | IC50 [4]: > 10000 nM | Efficacy [5]: 58% | IC50 [11]: 2900 nM | Efficacy [6]: 99% | IC50 [12]: 150 nM

Cn1c(=O)cc(C(F)(F)F)c2cc3c(cc21)N[C@@H]1CCCC[C@]31C
IC50 [1]: Not Active | Ki [7]: 9 nM | EC50 [8]: 33 nM

CCCN1c2cc3c(cc2[C@H]2CCCC[C@H]21)c(C(F)(F)F)cc(=O)n3C
Ki [7]: 63 nM | EC50 [8]: 324 nM | IC50 [9]: 27 nM

C[C@H]1N(C)c2cc3c(cc2C1(C)C)c(C(F)(F)F)cc(=O)n3C
Ki [7]: 33 nM | IC50 [9]: 56 nM | EC50 [13]: Not Active

CC1(C)CNc2cc3nc(O)cc(C(F)(F)F)c3cc21
Ki [7]: 28 nM | EC50 [8]: 42 nM | IC50 [9]: 10 nM

C[C@H]1Nc2cc3c(cc2C1(C)C)c(C(F)(F)F)cc(=O)n3C
Ki [7]: 9 nM | EC50 [8]: 380 nM | IC50 [9]: 22 nM

C[C@@H]1Cc2cc3c(C(F)(F)F)cc(O)nc3cc2N1
Ki [7]: 10 nM | EC50 [8]: 168 nM | IC50 [10]: > 10000 nM | Efficacy [2]: < 20% | Efficacy [3]: < 20% | IC50 [4]: > 10000 nM | Efficacy [5]: < 20% | IC50 [11]: > 10000 nM | Efficacy [6]: 89% | IC50 [12]: 750 nM | IC50 [9]: 7 nM

CN1c2cc3c(cc2[C@@]2(C)CCCC[C@@H]12)c(C(F)(F)F)cc(=O)n3C
Ki [7]: 97 nM | IC50 [9]: 53 nM | EC50 [13]: Not Active

C[C@H]1CC[C@H]2Nc3cc4nc(O)cc(C(F)(F)F)c4cc3[C@H]2C1
IC50 [1]: Not Active | Ki [7]: 23 nM | EC50 [8]: 64 nM

C[C@@H]1Cc2cc3c(C(F)(F)F)cc(=O)n(C)c3cc2N1
IC50 [1]: Not Active | Ki [7]: 9 nM | EC50 [8]: 20 nM
